# Laboratory results published in US7183415B2, “Quinoline compound” (Takeda Pharmaceutical Company Limited, priority 2001, dated 2007).
# Test system: not given
# Test: not given
# Conditions: not given
row,Compound,melting point [°C]
1,"COc1ccc(-c2ccc(C(=O)Nc3ccc4cc(CN5CCCC5)cnc4c3)cn2)cc1 [Example 8, 6-(4-methoxyphenyl)-N-[3-(1-pyrrolidinylmethyl)-7-quinolinyl]nicotinamide]",246 to 248
2,"Cc1c(NC(=O)c2ccc(-c3ccc(F)cc3)cc2)ccc2cc(CN3CCCC3)cnc12 [Example 19, 4′-fluoro-N-[8-methyl-3-(1-pyrrolidinylmethyl)-7-quinolinyl][1,1′-biphenyl]-4-carboxamide]",220 to 222
3,"Cc1ccc(-c2ccc(C(=O)Nc3cc4ncc(CN5CCCC5)cc4cc3F)cc2)cc1 [Example 54, N-[6-fluoro-3-(1-pyrrolidinylmethyl)-7-quinolinyl]-4′-methyl[1,1′-biphenyl]-4-carboxamide]",202 to 204
4,"O=C(Nc1ccc2cc(CN3CCCC3)cnc2c1)N1CCC(c2ccccc2)CC1 [Example 12, 4-phenyl-N-[3-(1-pyrrolidinylmethyl)-7-quinolinyl]-1-piperidine carboxamide]",222 to 224
5,"O=C(Nc1cc2ncc(CN3CCCC3)cc2cc1Cl)c1ccc(-c2cc3ccccc3o2)cc1 [Example 68, 4-(1-benzofuran-2-yl)-N-[6-chloro-3-(1-pyrrolidinylmethyl)-7-quinolinyl]benzamide]",209
6,"COc1ccc(-c2ccc(C(=O)Nc3ccc4cc(CN5CCCC5)cnc4c3C)c(F)c2)cc1 [Example 147, 3-fluoro-4′-methoxy-N-[8-methyl-3-(1-pyrrolidinylmethyl)-7-quinolinyl][1,1′-biphenyl]-4-carboxamide]",164 to 166
7,"O=C(Nc1cc2ncc(CN3CCCC3)cc2cc1F)c1ccc(-c2ccccc2)cc1F [Example 58, 3-fluoro-N-[6-fluoro-3-(1-pyrrolidinylmethyl)-7-quinolinyl][1,1′-biphenyl]-4-carboxamide]",163 to 164
8,"O=C(Nc1ccc2cc(CN3CCC(CCO)CC3)cnc2c1)c1ccc(-c2ccc(F)cc2)cc1 [Example 46, 4′-fluoro-N-(3-{[4-(2-hydroxyethyl)-1-piperidinyl]methyl}-7-quinolinyl)[1,1′-biphenyl]-4-carboxamide]",193 to 196
9,"COc1ccc(-c2ccc(C(=O)Nc3cc4ncc(CN5CCCC5)cc4cc3F)c(F)c2)cc1 [Example 59, 3-fluoro-N-[6-fluoro-3-(1-pyrrolidinylmethyl)-7-quinolinyl]-4′-methoxy[1,1′-biphenyl]-4-carboxamide]",174 to 176
10,"Cc1c(NC(=O)c2ccc(-c3ccc(Cl)s3)cc2F)ccc2cc(CN3CCCCC3)cnc12 (hydrate or solvate) [Example 172, 4-(5-chloro-2-thienyl)-2-fluoro-N-[8-methyl-3-(1-piperidinylmethyl)-7-quinolinyl]benzamide]",205 to 206
11,"CCN(CC)C(=O)C1CCN(Cc2cnc3cc(NC(=O)c4ccc(-c5ccc(F)cc5)cc4)c(C)cc3c2)CC1 [Example 272, N,N-diethyl-1-[(7-{[(4′-fluoro-1,1′-biphenyl-4-yl)carbonyl]amino}-6-methyl-3-quinolinyl)methyl]piperidine-4-carboxamide]",203
12,"Cc1cc2cc(CN3CCC(CCC(=O)N(C)C)CC3)cnc2cc1NC(=O)c1ccc(-c2ccc(F)cc2)cc1 [Example 256, N-[3-({4-[3-(dimethylamino)-3-oxopropyl]-1-piperidinyl}methyl)-6-methyl-7-quinolinyl]-4′-fluoro[1,1′-biphenyl]-4-carboxamide]",193 to 196
13,"Cc1c(NC(=O)c2ccc(-c3ccc(Cl)s3)cc2)ccc2cc(CN3CCCC3)cnc12 [Example 107, 4-(5-chloro-2-thienyl)-N-[8-methyl-3-(1-pyrrolidinylmethyl)-7-quinolinyl]benzamide]",210 to 211
14,"Cc1c(NC(=O)c2ccc(-c3ccccc3)cc2)ccc2cc(CN3CCCC3)cnc12 [Example 17, N-[8-methyl-3-(1-pyrrolidinylmethyl)-7-quinolinyl][1,1′-biphenyl]-4-carboxamide]",184 to 186
15,"CCNC(=O)CCC1CCN(Cc2cnc3cc(NC(=O)c4ccc(-c5ccc(F)cc5)cc4)c(C)cc3c2)CC1 [Example 255, N-[3-({4-[3-(ethylamino)-3-oxopropyl]-1-piperidinyl}methyl)-6-methyl-7-quinolinyl]-4′-fluoro[1,1′-biphenyl]-4-carboxamide]",227 to 230
16,"Cc1cc2cc(CN3CCCC3)cnc2cc1NC(=O)c1ccc(-c2ccc(Cl)cc2)cc1 [Example 39, 4′-chloro-N-[6-methyl-3-(1-pyrrolidinylmethyl)-7-quinolinyl][1,1′-biphenyl]-4-carboxamide]",214 to 217
17,"Cc1cc2cc(CN3CCC(CC(=O)N(C)C)CC3)cnc2cc1NC(=O)c1ccc(-c2ccc(F)cc2)cc1 [Example 268, N-[3-({4-[2-(dimethylamino)-2-oxoethyl]-1-piperidinyl}methyl)-6-methyl-7-quinolinyl]-4′-fluoro[1,1′-biphenyl]-4-carboxamide]",219
18,"Cc1cc2cc(CN(C)C)cnc2cc1NC(=O)c1ccc(-c2ccc(F)cc2)cc1 [Example 248, N-{3-[(dimethylamino)methyl]-6-methyl-7-quinolinyl}-4′-fluoro[1,1′-biphenyl]-4-carboxamide]",183 to 186
19,"CNC(=O)CC1CCN(Cc2cnc3c(C)c(NC(=O)c4ccc(-c5ccc(F)cc5)cc4)ccc3c2)CC1 [Example 201, 4′-fluoro-N-[8-methyl-3-({4-[2-(methylamino)-2-oxoethyl]-1-piperidinyl}methyl)-7-quinolinyl][1,1′-biphenyl]-4-carboxamide]",229 to 231
20,"Cc1c(NC(=O)c2ccc(-c3cc4ccccc4o3)cc2F)ccc2cc(CN3CCCC3)cnc12 [Example 142, 4-(1-benzofuran-2-yl)-2-fluoro-N-[8-methyl-3-(1-pyrrolidinylmethyl)-7-quinolinyl]benzamide]",202 to 203
21,"O=C(Nc1ccc2cc(CN3CCCC3)cnc2c1F)c1ccc(-c2ccc(Cl)cc2)cc1F [Example 279, 4′-chloro-3-fluoro-N-[8-fluoro-3-(1-pyrrolidinylmethyl)-7-quinolinyl][1,1′-biphenyl]-4-carboxamide]",208

# Target: T1, SLC-1 expression CHO cell membrane fraction (MCH receptor) (UniProt Q99705)
# T1 construct: full-length coding regions in pAKKO-111H
# Test: Antagonistic activity of test compound using GTP γ S binding assay
# Format: biochemical, human/rat
# Conditions: inhibition of MCH-stimulated [35S]-GTPγS binding, 25° C., 1 hr, read-out: Inhibitory activity (IC50: nM)
# Method: Using human SLC-1 expression CHO cell clone 57 obtained in Reference Example 1-10 and rat SLC-1 expression CHO cell clone 44 obtained in Reference Example 1-4, membrane fractions were prepared by the following method. In phosphate buffered saline (pH 7.4) supplemented with 5 mM EDTA (ethylenediamine tetraacetic acid) were suspended human and rat SLC-1 expression CHO cells (1×10^8) and centrifuged. Homogenate buffer (10 ml, 10 mM NaHCO3, 5 mM EDTA, pH 7.5) was added to the pellets of the cells and, using Polytron Homogeniser, the mixture was homogenated. The supernatant obtained after centrifugation at 400×g for 15 min was further centrifuged at 100,000×g for 1 hr to give precipitate of the membrane fraction. […]
# The antagonistic activity of the test compound was determined as follows. […] Liquid scintillator (50 ml) was added to the glass filter and the residual radioactivity was determined by a liquid scintillation counter. Binding inhibition (%)=(radioactivity upon addition of compound and MCH−radioactivity upon addition of DMSO solution)/(radioactivity upon addition of MCH−radioactivity upon addition of DMSO solution)×100
# From the binding inhibition (%), IC50 of the compound was calculated.
row,Compound,IC50 [nM]
1,"COc1ccc(-c2ccc(C(=O)Nc3ccc4cc(CN5CCCC5)cnc4c3)cn2)cc1 [Example 8, 6-(4-methoxyphenyl)-N-[3-(1-pyrrolidinylmethyl)-7-quinolinyl]nicotinamide]",6

# Test system: SD (Sprague Dawley) rats
# Test: Evaluation of antidepressive action by forced swim test
# Format: in vivo, rat
# Conditions: 3 mg/kg body weight, oral, 30 minutes before test, five minutes measured, n=10; control group 30.86±8.71
# Method: By performing a forced swim test using SD (Sprague Dawley) rats (seven-week-old, male, body weight 233.3–266.9 g, purchased from Japan Clea), the antidepressive action of the compound of the present invention was evaluated.
# First, a suspension of the compound of Example 19 in 0.5% methyl cellulose was orally administered to SD rats (n=10) (compound dose: 3 mg/kg body weight). Thirty minutes later, the rats were placed in a pipe (diameter 21 cm, height 50 cm) made of Plexiglass (trade name, made by Rohm & Haas, U.S.A.) containing tap water (water temperature 25±2° C., 30 cm deep). Immobility time of the rats for five minutes thereafter was measured using a digital video camera.
# In addition, 0.5% methyl cellulose suspension without the compound was orally administered to SD rats (n=10), and the rats were subjected the forced swim test in the same manner as above and taken as a control group.
row,Compound,"immobility time (seconds, mean±standard deviation) [s]"
1,"Cc1c(NC(=O)c2ccc(-c3ccc(F)cc3)cc2)ccc2cc(CN3CCCC3)cnc12 [Example 19, 4′-fluoro-N-[8-methyl-3-(1-pyrrolidinylmethyl)-7-quinolinyl][1,1′-biphenyl]-4-carboxamide]",15.93 ± 5.62
